Patent US10179770B2, “Quinolines derivatives as novel anticancer agents” (GENOSCIENCE PHARMA, priority 2013, dated 2019)

Tests used:
Experiment in all cases: NCI-60 screen (SRB)
Assay type in all cases: cell-based
[1] = system: SF-268; conditions: SF-268 (CNS)
Protocol: (§1) The human tumor cell lines of the cancer screening panel are grown in RPMI 1640 medium containing 5% fetal bovine serum and 2 mM L-glutamine. For a typical screening experiment, cells are inoculated into 96 well microtiter plates in 100 μL at plating densities ranging from 5,000 to 40,000 cells/well depending on the doubling time of individual cell lines. After cell inoculation, the microtiter plates are incubated at 37° C., 5% CO2, 95% air and 100% relative humidity for 24 h prior to addition of experimental drugs.
(§2) After 24 h, two plates of each cell line are fixed in situ with TCA, to represent a measurement of the cell population for each cell line at the time of drug addition (Tz). Experimental drug is solubilized in dimethyl sulfoxide at 400-fold the desired final maximum test concentration and stored frozen prior to use. At the time of drug addition, an aliquot of frozen concentrate is thawed and diluted to twice the desired final maximum test concentration with complete medium containing 50 μg/ml gentamicin. Additional four, 10-fold or ½ log serial dilutions are made to provide a total of five drug concentrations plus control. Aliquots of 100 μl of these different drug dilutions are added to the appropriate microtiter wells already containing 100 μl of medium, resulting in the required final drug concentrations.
(§3) Following drug addition, the plates are incubated for an additional 48 h at 37° C., 5% CO2, 95% air, and 100% relative humidity. For adherent cells, the assay is terminated by the addition of cold TCA. Cells are fixed in situ by the gentle addition of 50 μl of cold 50% (w/v) TCA (final concentration, 10% TCA) and incubated for 60 minutes at 4° C. The supernatant is discarded, and the plates are washed five times with tap water and air dried. Sulforhodamine B (SRB) solution (100 μl) at 0.4% (w/v) in 1% acetic acid is added to each well, and plates are incubated for 10 minutes at room temperature. After staining, unbound dye is removed by washing five times with 1% acetic acid and the plates are air dried. Bound stain is subsequently solubilized with 10 mM trizma base, and the absorbance is read on an automated plate reader at a wavelength of 515 nm. For suspension cells, the methodology is the same except that the assay is terminated by fixing settled cells at the bottom of the wells by gently adding 50 μl of 80% TCA (final concentration, 16% TCA). Using the seven absorbance measurements [time zero, (Tz), control growth, (C), and test growth in the presence of drug at the five concentration levels (Ti)], the percentage growth is calculated at each of the drug concentrations levels.
(§4) Percentage growth inhibition is calculated as: [(Ti−Tz)/(C−Tz)]×100 for concentrations for which Ti>/=Tz (1) [(Ti−Tz)/Tz]×100 for concentrations for which Ti<Tz (2)
(§5) Growth inhibition of 50% (GI50) is calculated from [(Ti−Tz)/(C−Tz)]×100=50 (3)
(§6) which is the drug concentration resulting in a 50% reduction in the net protein increase (as measured by SRB staining) in control cells during the drug incubation.
(§7) The drug concentration resulting in total growth inhibition (TGI) is calculated from Ti=Tz (4)
(§8) The LC50 (concentration of drug resulting in a 50% reduction in the measured protein at the end of the drug treatment as compared to that at the beginning) indicating a net loss of cells following treatment is calculated from [(Ti−Tz)/Tz]×100=−50 (5)
(§9) Values are calculated for each of these three parameters if the level of activity is reached; however, if the effect is not reached or is exceeded, the value for that parameter is expressed as greater or less than the maximum or minimum concentration tested.

[2] = system: SNB-75; conditions: SNB-75 (CNS)
Protocol: as §1, §2, §3, §4, §5, §6, §7, §8, §9

[3] = system: UACC-257; conditions: UACC-257 (Melanoma)
Protocol: as §1, §2, §3, §4, §5, §6, §7, §8, §9

[4] = system: NCI-H23; conditions: NCI-H23 (Non-Small Cell Lung)
Protocol: as §1, §2, §3, §4, §5, §6, §7, §8, §9

[5] = system: SK-OV3; conditions: SK-OV3 (Ovarian)
Protocol: as §1, §2, §3, §4, §5, §6, §7, §8, §9

[6] = system: CCRF-CEM; conditions: CCRF-CEM (Leukemia)
Protocol: as §1, §2, §3, §4, §5, §6, §7, §8, §9

[7] = system: MDA-MB-435; conditions: MDA-MB-435 (Melanoma)
Protocol: as §1, §2, §3, §4, §5, §6, §7, §8, §9

[8] = system: U251; conditions: U251 (CNS)
Protocol: as §1, §2, §3, §4, §5, §6, §7, §8, §9

[9] = system: 786-0; conditions: 786-0 (Renal)
Protocol: as §1, §2, §3, §4, §5, §6, §7, §8, §9

[10] = system: NCI-H460; conditions: NCI-H460 (Non-Small Cell Lung)
Protocol: as §1, §2, §3, §4, §5, §6, §7, §8, §9

[11] = system: SNB-19; conditions: SNB-19 (CNS)
Protocol: as §1, §2, §3, §4, §5, §6, §7, §8, §9

[12] = system: BT-549; conditions: BT-549 (Breast)
Protocol: as §1, §2, §3, §4, §5, §6, §7, §8, §9

[13] = system: HCC-2998; conditions: HCC-2998 (Colon)
Protocol: as §1, §2, §3, §4, §5, §6, §7, §8, §9

[14] = system: T-47D; conditions: T-47D (Breast)
Protocol: as §1, §2, §3, §4, §5, §6, §7, §8, §9

[15] = system: NCI/ADR-RES; conditions: NCI/ADR-RES (Ovarian)
Protocol: as §1, §2, §3, §4, §5, §6, §7, §8, §9

[16] = system: UO-31; conditions: UO-31 (Renal)
Protocol: as §1, §2, §3, §4, §5, §6, §7, §8, §9

[17] = system: KM12; conditions: KM12 (Colon)
Protocol: as §1, §2, §3, §4, §5, §6, §7, §8, §9

[18] = Homo sapiens, read-out: LC50 (the source's name)

`CC(C)(C)NC1CCN(c2cc(-c3ccc(Cl)cc3)nc3ccccc23)CC1.Cl.Cl` [XII-4, 2-(4-chloro-phenyl)-4-(4-N-tert-butylamino-piperidin-1-yl)quinoline dihydrochloride] was tested, and the “Growth percent at 10 μM” value [1] was “+ (cell growth 60 > % < 80)”, the “Growth percent at 10 μM” value [2] was “++ (cell growth 40 > % < 60)” and the “Growth percent at 10 μM” value [3] was “××× (cell growth −40 < % > −60)”. For the same molecule, the “Growth percent at 10 μM” value [4] was “− (cell growth % > 80)”, the “Growth percent at 10 μM” value [5] was “− (cell growth % > 80)” and the “Growth percent at 10 μM” value [6] was “+++ (cell growth 20 > % < 40)”. For the same molecule, the “Growth percent at 10 μM” value [7] was “++++ (cell growth 0 > % < 20)”, the “Growth percent at 10 μM” value [8] was “++ (cell growth 40 > % < 60)” and the “Growth percent at 10 μM” value [9] was “++ (cell growth 40 > % < 60)”. The “Growth percent at 10 μM” value [10] was “++ (cell growth 40 > % < 60)”, the “Growth percent at 10 μM” value [11] was “− (cell growth % > 80)” and the “Growth percent at 10 μM” value [12] was “− (cell growth % > 80)”. For the same molecule, the “Growth percent at 10 μM” value [13] was “++++ (cell growth 0 > % < 20)”, the “Growth percent at 10 μM” value [14] was “++ (cell growth 40 > % < 60)” and the “Growth percent at 10 μM” value [15] was “+ (cell growth 60 > % < 80)”. For the same molecule, the “Growth percent at 10 μM” value [16] was “+++ (cell growth 20 > % < 40)” and the “Growth percent at 10 μM” value [17] was “+ (cell growth 60 > % < 80)”.

Work on `CCN(CC)C1CCN(C(C)c2cc(-c3ccccc3)nc3ccccc23)CC1.Cl.Cl` (stereo not shown) [XIX-3, 2-phenyl-4-{1-[4-(N,N-diethylamino)piperidin-1-yl]-eth-1-yl}quinoline dihydrochloride] yielded a GI50 ([1]; Homo sapiens) of 10 µM, a CC50 [1, 18] of 55 µM and a TGI [1] of 24 µM. For the same molecule, the “Growth percent at 10 μM” value [1] was “+ (cell growth 60 > % < 80)”, the GI50 ([2]; Homo sapiens) was 12 µM and the CC50 [2, 18] was 55 µM. The TGI [2] was 26 µM, the “Growth percent at 10 μM” value [2] was “+++ (cell growth 20 > % < 40)” and the GI50 ([3]; Homo sapiens) was 2 µM. For the same molecule, the CC50 [3, 18] was 8 µM, the TGI [3] was 4 µM and the “Growth percent at 10 μM” value [3] was “××× (cell growth −40 > % < −60)”. For the same molecule, the GI50 ([4]; Homo sapiens) was > 100 µM, the CC50 [4, 18] was > 100 µM and the TGI [4] was >100 µM. The “Growth percent at 10 μM” value [4] was “− (cell growth % > 80)”, the GI50 ([5]; Homo sapiens, SK-OV-3) was 17 µM and the LC50 (concentration killing 50% of cells) ([5]; Homo sapiens, SK-OV-3) was 59 µM. The TGI [5] was 31 µM, the “Growth percent at 10 μM” value [5] was “− (cell growth % > 80)” and the TGI [6] was 25 µM. The “Growth percent at 10 μM” value [6] was “++ (cell growth 40 > % < 60)”, the GI50 ([6]; Homo sapiens) was 9 µM and the CC50 [6, 18] was 62 µM. It also gave a GI50 ([7]; Homo sapiens) of 2 µM, a CC50 [7, 18] of 14 µM and a TGI [7] of 5 µM. The “Growth percent at 10 μM” value [7] was “++++ (cell growth % < 20)”, the GI50 ([8]; Homo sapiens, U-251) was 6 µM and the CC50 ([8]; Homo sapiens, U-251, read-out: LC50 (the source's name)) was 49 µM. The TGI [8] was 20 µM, the “Growth percent at 10 μM” value [8] was “+++ (cell growth 20 > % < 40)” and the TGI [9] was 23 µM. For the same molecule, the “Growth percent at 10 μM” value [9] was “++ (cell growth 40 > % < 60)”, the GI50 ([9]; Homo sapiens) was 8 µM and the CC50 [9, 18] was 54 µM. For the same molecule, the GI50 ([10]; Homo sapiens) was 7 µM, the CC50 [10, 18] was 54 µM and the TGI [10] was 22 µM. The “Growth percent at 10 μM” value [10] was “+ (cell growth 60 > % < 80)”, the GI50 ([11]; Homo sapiens) was 13 µM and the CC50 [11, 18] was 59 µM. For the same molecule, the TGI [11] was 28 µM, the “Growth percent at 10 μM” value [11] was “− (cell growth % > 80)” and the TGI [12] was 27 µM. The “Growth percent at 10 μM” value [12] was “+ (cell growth 60 > % < 80)”, the GI50 ([12]; Homo sapiens) was 13 µM and the CC50 [12, 18] was 56 µM. For the same molecule, the TGI [13] was 13 µM, the “Growth percent at 10 μM” value [13] was “++ (cell growth 40 > % < 60)” and the GI50 ([13]; Homo sapiens) was 4 µM. The CC50 [13, 18] was 44 µM, the GI50 ([14]; Homo sapiens, T47D) was 5 µM and the CC50 ([14]; Homo sapiens, T47D, read-out: LC50 (the source's name)) was 52 µM. For the same molecule, the TGI [14] was 19 µM, the “Growth percent at 10 μM” value [14] was “++ (cell growth 40 > % < 60)” and the GI50 ([15]; Homo sapiens) was 12 µM. The LC50 (concentration giving 50% net cell kill) ([15]; Homo sapiens) was 56 µM, the TGI [15] was 26 µM and the “Growth percent at 10 μM” value [15] was “+ (cell growth 60 > % < 80)”. For the same molecule, the GI50 ([16]; Homo sapiens) was 8 µM, the CC50 [16, 18] was 22 µM and the TGI [16] was 22 µM. For the same molecule, the “Growth percent at 10 μM” value [16] was “++ (cell growth 40 > % < 60)”, the GI50 ([17]; Homo sapiens) was 10 µM and the CC50 [17, 18] was 50 µM. For the same molecule, the TGI [17] was 22 µM and the “Growth percent at 10 μM” value [17] was “++ (cell growth 40 > % < 60)”.
